Columns and labels:
[1] = tested on: Penicillium cyclopium; test: Fungicidal effect on infected agar nutrient media, colony diameter; type: cell-based; details: 7th day after treatment, untreated 26.5
How it was run: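 Agar media (70 mm diameter, 10 mm thick) infected with Penicillium cyclopium were treated with EC formulations at 1, 10, 100 and 1000 ppm active ingredient. Fungal colony diameter was measured on day 7 after treatment.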

[2] = tested on: Alternaria sp.; test: Fungicidal effect on paprika seeds on agar, colony diameter; type: cell-based; details: 5th day, control 36.62
Protocol: (§1) The test is carried out on paprika seeds placed on agar nutrient medium and impregnated with phytopathogenic Fungi (Alternaria sp., Penicillium sp., Sclerotinia sp.). The paprika seeds are treated with various doses of 2-(0-2'-chloroethyl)-2-thio-1,3,2-oxathiophospholane (Compound No. 1 of Table I) and the known fungicidal agent Aliette, respectively.
(§2) The concentration data relate to the active ingredient. Treatment is carried out by using a 20 EC prepared according to Example 27. Evaluation is carried out on the 5th day after treatment by measuring the diameter of the Fungi colonies.

[3] = tested on: Sclerotinia sp.; test: as above; type: cell-based; details: 5th day, control 41.50
Protocol: as §1, §2

[4] = tested on: Penicillium sp.; test: as above; type: cell-based; details: 5th day, control 23.35
Protocol: as §1, §2

[5] = tested on: cotton seeds strongly infected by pathogens; test: Seed dressing test, shoot up %; type: in vivo; details: related to untreated control = 100
From the text: (§3) In this test cotton, maize, sunflower and sugar beet seeds strongly infected by pathogens and treated with different doses of 2-(0-2'-chloroethyl)-2-thio-1,3,2-oxathiophospholane (Compound No. 1) are used. The doses amount to 50, 100 and 200 g of active ingredient, respectively. As reference seeds being either untreated or treated with Mancozeb (manganese +zinc/-ethylene bis-dithiocarbamte) 0.8 kg/t +Benomyl (1-butyl carbamoyl-benzimidazole-2-methylcarbamate) 0.5 kg/t are used.
(§4) Compound No. 1 of the present invention is formulated as 50 WP in an analogous manner to Example 31. The test is carried out in six replicates, by sowing 10 seeds in each replicate. The results are evaluated by determining the shoot up % related to the control.

[6] = tested on: sugar beet seeds strongly infected by pathogens; test: Seed dressing test, shoot up %; type: in vivo; details: related to untreated control = 100
From the text: as §3, §4

[7] = tested on: maize seeds strongly infected by pathogens; test: Seed dressing test, shoot up %; type: in vivo; details: related to untreated control = 100
From the text: as §3, §4

[8] = tested on: sunflower seeds strongly infected by pathogens; test: Seed dressing test, shoot up %; type: in vivo; details: related to untreated control = 100
From the text: as §3, §4

[9] = tested on: Sclerotinia sclerotinia; test: Fungicidal effect on infected agar nutrient media, colony diameter; type: cell-based; details: 3rd day after treatment, untreated control 41.7
Protocol: Agar nutrient media (Diameter 70 MM, thickness 10 mm) infected by Sclerotonia sclerotinia suspension are treated with 20 EC formulations prepared according to Example 27 and comprising 1, 10, 100 and 1000 ppm, respectively of the active ingredient of the Formula I. The fungicidal effect of the compositions is evaluated on the 3rd day after treatment by measuring the diameter of the Fungi colonies.

[10] = tested on: Alternaria tenuis; test: as above; type: cell-based; details: 5th day after treatment, untreated control 36.8
How it was run: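 Agar media (70 mm diameter, 10 mm thick) infected with Alternaria tenuis, treated with EC formulations at 1, 10, 100 and 1000 ppm active ingredient. Fungicidal effect read on day 5 after treatment as fungal colony diameter.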

[11] = tested on: Fusarium sp. and Alternaria sp.; test: Soil disinfection test, shoot up %; type: in vivo, cotton; details: 1 kg of active ingredient/ha; soil disinfectant granules; untreated control = 100
Protocol: (§5) The soil is watered and admixed with a Fusarium sp. and Alternaria sp. suspension. In the infected soil cotton and sugar beet seeds are sown, namely 10 seeds per replicate. Eight replicates are used in the test. The soil is treated with 2-(0-2'-chloroethyl)-2-thio-1,3,2-oxathiophospholane (Compound No. 1) in a dose of 1 kg of active ingredient.ha^- 1. Treatment is carried out with soil disinfectant granules prepared in an analogous manner to Example 33. Evaluation is carried out by determining the shoot up % related to the untreated control.

[12] = tested on: Fusarium sp. and Alternaria sp.; test: Soil disinfection test, shoot up %; type: in vivo, sugar beet; details: 1 kg of active ingredient/ha; soil disinfectant granules; untreated control = 100
Protocol: as §5

S=P1(OCCCl)OCCS1 (centres unmarked) [Compound 1, 2-(O-2'-chloroethyl)-2-thio-1,3,2-oxathiophospholane]
Diameter of colony (mm) ([1]; 1 ppm): 23.2 mm
Diameter of colony (mm) ([1]; 10 ppm): 20.0 mm
Diameter of colony (mm) ([1]; 100 ppm): 8.0 mm
Diameter of colony (mm) ([1]; 1000 ppm): 0 mm
Diameter of Colony (MM) Alternaria ([2]; 1 ppm): 33.50 MM
Diameter of Colony (MM) Alternaria ([2]; 5 ppm): 32.25 MM
Diameter of Colony (MM) Alternaria ([2]; 10 ppm): 25.87 MM
Diameter of Colony (MM) Alternaria ([2]; 50 ppm): 16.75 MM
Diameter of Colony (MM) Alternaria ([2]; 100 ppm): 7.62 MM
Diameter of Colony (MM) Alternaria ([2]; 1000 ppm): 0 MM
Diameter of Colony (MM) Sclerotinia ([3]; 1 ppm): 39.37 MM
Diameter of Colony (MM) Sclerotinia ([3]; 5 ppm): 40.62 MM
Diameter of Colony (MM) Sclerotinia ([3]; 10 ppm): 31.75 MM
Diameter of Colony (MM) Sclerotinia ([3]; 50 ppm): 10.62 MM
Diameter of Colony (MM) Sclerotinia ([3]; 100 ppm): 3.50 MM
Diameter of Colony (MM) Sclerotinia ([3]; 1000 ppm): 0 MM
Diameter of Colony (MM) Penicillium ([4]; 1 ppm): 22.20 MM
Diameter of Colony (MM) Penicillium ([4]; 5 ppm): 20.05 MM
Diameter of Colony (MM) Penicillium ([4]; 10 ppm): 20.05 MM
Diameter of Colony (MM) Penicillium ([4]; 50 ppm): 19.40 MM
Diameter of Colony (MM) Penicillium ([4]; 100 ppm): 8.12 MM
Diameter of Colony (MM) Penicillium ([4]; 1000 ppm): 0 MM
Shoot up % Cotton ([5]; 50 g/t): 146%
Shoot up % Cotton ([5]; 100 g/t): 218%
Shoot up % Cotton ([5]; 200 g/t): 255%
Shoot up % Sugar beet ([6]; 50 g/t): 205%
Shoot up % Sugar beet ([6]; 100 g/t): 312%
Shoot up % Sugar beet ([6]; 200 g/t): 156%
Shoot up % Maize ([7]; 50 g/t): 121%
Shoot up % Maize ([7]; 100 g/t): 133%
Shoot up % Maize ([7]; 200 g/t): 125%
Shoot up % Sunflower ([8]; 50 g/t): 132%
Shoot up % Sunflower ([8]; 100 g/t): 154%
Shoot up % Sunflower ([8]; 200 g/t): 129%
Diameter of colony (mm) ([9]; 1 ppm): 39.4 mm
Diameter of colony (mm) ([9]; 10 ppm): 31.7 mm
Diameter of colony (mm) ([9]; 100 ppm): 3.5 mm
Diameter of colony (mm) ([9]; 1000 ppm): 0 mm
Diameter of colony (mm) ([10]; 1 ppm): 33.5 mm
Diameter of colony (mm) ([10]; 10 ppm): 25.8 mm
Diameter of colony (mm) ([10]; 100 ppm): 7.6 mm
Diameter of colony (mm) ([10]; 1000 ppm): 0 mm
Shoot up % Cotton [11]: 239%
Shoot up % Sugar beet [12]: 346%

CCO[PH](=O)O [Aliette, aluminum-tris-(O-ethyl-phosphate), reference compound]
Diameter of Colony (MM) Alternaria ([2]; 1 ppm): 34.05 MM
Diameter of Colony (MM) Alternaria ([2]; 5 ppm): 35.16 MM
Diameter of Colony (MM) Alternaria ([2]; 10 ppm): 29.41 MM
Diameter of Colony (MM) Alternaria ([2]; 50 ppm): 26.13 MM
Diameter of Colony (MM) Alternaria ([2]; 100 ppm): 19.16 MM
Diameter of Colony (MM) Alternaria ([2]; 1000 ppm): 8.92 MM
Diameter of Colony (MM) Sclerotinia ([3]; 1 ppm): 40.45 MM
Diameter of Colony (MM) Sclerotinia ([3]; 5 ppm): 39.64 MM
Diameter of Colony (MM) Sclerotinia ([3]; 10 ppm): 36.44 MM
Diameter of Colony (MM) Sclerotinia ([3]; 50 ppm): 28.06 MM
Diameter of Colony (MM) Sclerotinia ([3]; 100 ppm): 22.40 MM
Diameter of Colony (MM) Sclerotinia ([3]; 1000 ppm): 6.75 MM
Diameter of Colony (MM) Penicillium ([4]; 1 ppm): 21.35 MM
Diameter of Colony (MM) Penicillium ([4]; 5 ppm): 20.66 MM
Diameter of Colony (MM) Penicillium ([4]; 10 ppm): 18.45 MM
Diameter of Colony (MM) Penicillium ([4]; 50 ppm): 17.63 MM
Diameter of Colony (MM) Penicillium ([4]; 100 ppm): 16.62 MM
Diameter of Colony (MM) Penicillium ([4]; 1000 ppm): 10.15 MM

From patent US4877893A, “Process for the preparation of 2-(O-alkyl)-2-thio-1,3,2-oxathiophospholanes” (priority 1987, dated 1989)
